Results as given in the supplement of paper PMC10307832.

Tests used:
[1] = compound: CC(=O)Nc1cccc(-n2c(=O)n(C3CC3)c(=O)c3c(Nc4ccc(I)cc4F)n(C)c(=O)c(C)c32)c1 [Trametinib]; test: relative viability (nuclei count vs DMSO), 5 days (fraction); higher = more cells survive
In short: (§1)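 Acceptance criteria were a control CV below 25% and at least one doubling per plate. Lung cancer cell lines in 1536-well plates got five library-drug doses (not always all listed) √10 apart by pinning and were left 5 days with no medium change. Viability divides treated-well nuclei by vehicle-well nuclei and is the median across plates. Nuclei were counted by MetaXpress from 4× Hoechst images.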

[2] = compound: CN1C=C(C2=CC=CC=C21)/C=C\3/C4=C(C=CC=N4)NC3=O; test: as above
In short: as §1

## HCC-15
[1]; 0.0025 µM
  relative viability: 0.795
[1]; 0.007906 µM
  relative viability: 0.541
[1]; 0.02 µM, anchor plate
  relative viability: 0.389
[1]; 0.025 µM
  relative viability: 0.544
[1]; 0.07906 µM
  relative viability: 0.325
[1]; 0.25 µM
  relative viability: 0.28
[2]; 0.02 µM
  relative viability: 0.947
[2]; 0.06325 µM
  relative viability: 0.952
[2]; 0.2 µM
  relative viability: 1.03
[2]; 0.6325 µM
  relative viability: 1.01
[2]; 2 µM
  relative viability: 1.01

## HCC-44
[1]; 0.0025 µM
  relative viability: 0.966
[1]; 0.007906 µM
  relative viability: 0.982
[1]; 0.02 µM, anchor plate
  relative viability: 1.05
[1]; 0.025 µM
  relative viability: 1.02
[1]; 0.07906 µM
  relative viability: 0.82
[1]; 0.25 µM
  relative viability: 0.495
[2]; 0.02 µM
  relative viability: 0.902
[2]; 0.06325 µM
  relative viability: 0.906
[2]; 0.2 µM
  relative viability: 0.87
[2]; 0.6325 µM
  relative viability: 0.991
[2]; 2 µM
  relative viability: 0.935

## HCC-78
[1]; 0.0025 µM
  relative viability: 0.933
[1]; 0.007906 µM
  relative viability: 0.735
[1]; 0.02 µM, anchor plate
  relative viability: 0.805
[1]; 0.025 µM
  relative viability: 0.678
[1]; 0.07906 µM
  relative viability: 0.573
[1]; 0.25 µM
  relative viability: 0.526
[2]; 0.02 µM
  relative viability: 0.81
[2]; 0.06325 µM
  relative viability: 0.905
[2]; 0.2 µM
  relative viability: 0.731
[2]; 0.6325 µM
  relative viability: 0.803
[2]; 2 µM
  relative viability: 0.889

## HCC-366
[1]; 0.0025 µM
  relative viability: 0.959
[1]; 0.007906 µM
  relative viability: 0.969
[1]; 0.02 µM, anchor plate
  relative viability: 0.373
[1]; 0.025 µM
  relative viability: 0.796
[1]; 0.07906 µM
  relative viability: 0.669
[1]; 0.25 µM
  relative viability: 0.395
[2]; 0.02 µM
  relative viability: 1.01
[2]; 0.06325 µM
  relative viability: 1
[2]; 0.2 µM
  relative viability: 0.923
[2]; 0.6325 µM
  relative viability: 1.1
[2]; 2 µM
  relative viability: 1.02

## HCC-827
[1]; 0.0025 µM
  relative viability: 0.999
[1]; 0.007906 µM
  relative viability: 0.958
[1]; 0.02 µM, anchor plate
  relative viability: 0.508
[1]; 0.025 µM
  relative viability: 0.92
[1]; 0.07906 µM
  relative viability: 0.738
[1]; 0.25 µM
  relative viability: 0.609
[2]; 0.02 µM
  relative viability: 0.94
[2]; 0.06325 µM
  relative viability: 0.978
[2]; 0.6325 µM
  relative viability: 1.11
[2]; 2 µM
  relative viability: 1.06

## HOP-62
[1]; 0.0025 µM
  relative viability: 1
[1]; 0.007906 µM
  relative viability: 0.943
[1]; 0.02 µM, anchor plate
  relative viability: 0.4
[1]; 0.025 µM
  relative viability: 0.778
[1]; 0.07906 µM
  relative viability: 0.444
[1]; 0.25 µM
  relative viability: 0.209
[2]; 0.02 µM
  relative viability: 0.992
[2]; 0.06325 µM
  relative viability: 1.03
[2]; 0.2 µM
  relative viability: 0.805
[2]; 0.6325 µM
  relative viability: 1.02
[2]; 2 µM
  relative viability: 0.938

## IA-LM
[1]; 0.0025 µM
  relative viability: 0.764
[1]; 0.007906 µM
  relative viability: 0.464
[1]; 0.025 µM
  relative viability: 0.166
[1]; 0.07906 µM
  relative viability: 0.178
[1]; 0.25 µM
  relative viability: 0.107
[2]; 0.02 µM
  relative viability: 0.978
[2]; 0.06325 µM
  relative viability: 0.934
[2]; 0.2 µM
  relative viability: 0.945
[2]; 0.6325 µM
  relative viability: 0.811
[2]; 2 µM
  relative viability: 0.878

## LC-2-ad
[1]; 0.0025 µM
  relative viability: 0.948
[1]; 0.007906 µM
  relative viability: 0.871
[1]; 0.02 µM, anchor plate
  relative viability: 0.9
[1]; 0.025 µM
  relative viability: 0.875
[1]; 0.07906 µM
  relative viability: 0.587
[1]; 0.25 µM
  relative viability: 0.596
[2]; 0.02 µM
  relative viability: 0.988
[2]; 0.06325 µM
  relative viability: 0.995
[2]; 0.2 µM
  relative viability: 0.786
[2]; 0.6325 µM
  relative viability: 1
[2]; 2 µM
  relative viability: 0.959

## LCLC-97TM1
[1]; 0.0025 µM
  relative viability: 0.884
[1]; 0.007906 µM
  relative viability: 0.836
[1]; 0.02 µM, anchor plate
  relative viability: 0.197
[1]; 0.025 µM
  relative viability: 0.398
[1]; 0.07906 µM
  relative viability: 0.204
[1]; 0.25 µM
  relative viability: 0.138
[2]; 0.02 µM
  relative viability: 0.701
[2]; 0.06325 µM
  relative viability: 0.844
[2]; 0.2 µM
  relative viability: 0.717
[2]; 0.6325 µM
  relative viability: 1.11
[2]; 2 µM
  relative viability: 0.922

## LCLC-103H
[1]; 0.0025 µM
  relative viability: 0.92
[1]; 0.007906 µM
  relative viability: 0.869
[1]; 0.02 µM, anchor plate
  relative viability: 0.672
[1]; 0.025 µM
  relative viability: 0.814
[1]; 0.07906 µM
  relative viability: 0.697
[1]; 0.25 µM
  relative viability: 0.685
[2]; 0.02 µM
  relative viability: 0.963
[2]; 0.06325 µM
  relative viability: 0.933
[2]; 0.2 µM
  relative viability: 0.976
[2]; 0.6325 µM
  relative viability: 0.98
[2]; 2 µM
  relative viability: 0.959

## LK-2
[1]; 0.0025 µM
  relative viability: 0.93
[1]; 0.007906 µM
  relative viability: 0.832
[1]; 0.02 µM, anchor plate
  relative viability: 0.761
[1]; 0.025 µM
  relative viability: 0.989
[1]; 0.07906 µM
  relative viability: 0.757
[1]; 0.25 µM
  relative viability: 0.388
[2]; 0.06325 µM
  relative viability: 0.697
[2]; 0.2 µM
  relative viability: 0.652
[2]; 0.6325 µM
  relative viability: 0.776
[2]; 2 µM
  relative viability: 0.975

## LOU-NH91
[1]; 0.0025 µM
  relative viability: 0.926
[1]; 0.007906 µM
  relative viability: 0.923
[1]; 0.02 µM, anchor plate
  relative viability: 0.799
[1]; 0.025 µM
  relative viability: 0.761
[1]; 0.07906 µM
  relative viability: 0.8
[1]; 0.25 µM
  relative viability: 0.366
[2]; 0.02 µM
  relative viability: 0.902
[2]; 0.06325 µM
  relative viability: 0.825
[2]; 0.2 µM
  relative viability: 0.844
[2]; 0.6325 µM
  relative viability: 0.856
[2]; 2 µM
  relative viability: 0.95

## LU99A
[1]; 0.0025 µM
  relative viability: 0.953
[1]; 0.007906 µM
  relative viability: 0.829
[1]; 0.02 µM, anchor plate
  relative viability: 0.53
[1]; 0.025 µM
  relative viability: 0.551
[1]; 0.07906 µM
  relative viability: 0.707
[1]; 0.25 µM
  relative viability: 0.681
[2]; 0.02 µM
  relative viability: 0.983
[2]; 0.06325 µM
  relative viability: 0.845
[2]; 0.2 µM
  relative viability: 0.909
[2]; 0.6325 µM
  relative viability: 0.937
[2]; 2 µM
  relative viability: 0.789

## LXF-289
[1]; 0.0025 µM
  relative viability: 0.897
[1]; 0.007906 µM
  relative viability: 0.86
[1]; 0.02 µM, anchor plate
  relative viability: 0.679
[1]; 0.025 µM
  relative viability: 0.755
[1]; 0.07906 µM
  relative viability: 0.722
[1]; 0.25 µM
  relative viability: 0.664
[2]; 0.02 µM
  relative viability: 0.979
[2]; 0.06325 µM
  relative viability: 1
[2]; 0.2 µM
  relative viability: 0.976
[2]; 0.6325 µM
  relative viability: 1
[2]; 2 µM
  relative viability: 1.03

## NCI-H23
[1]; 0.0025 µM
  relative viability: 0.876
[1]; 0.007906 µM
  relative viability: 0.831
[1]; 0.02 µM, anchor plate
  relative viability: 0.417
[1]; 0.025 µM
  relative viability: 0.349
[1]; 0.07906 µM
  relative viability: 0.433
[1]; 0.25 µM
  relative viability: 0.264
[2]; 0.02 µM
  relative viability: 0.802
[2]; 0.06325 µM
  relative viability: 0.849
[2]; 0.2 µM
  relative viability: 0.685
[2]; 0.6325 µM
  relative viability: 1.03
[2]; 2 µM
  relative viability: 0.986
